Reference: patent publication US20240261224A1, “FORMULATION OF A PAN-JAK INHIBITOR” (KINASET THERAPEUTICS, INC., priority 2022, published 2024)

Assay: APSD, MMAD, FPM and FPF determination (NGI, 90 L/min)
Format: physicochemical
Settings: for Fine particle mass (≤5 μm): in µg (unit assumed)
Method: Cup coating agent was prepared by mixing 150 mL of a mixture of Brij® 35, ethanol, and glycerol with 850 ml of ethanol.
The cup coating agent was prepared, and the NGI was assembled. The collection cups were then coated with cup coating agent and then proceeded to dry. A PALL® A/E 76 mm filter was placed into the back-up filter and attached to the NGI. Approximately 15 mL of diluent was added into the pre-separator insert. The flow rate was set to 90 L/min and the capsule was pierced. One dose was discharged into the NGI by initiating the time-controlled solenoid valve for 2.70 seconds. Sample diluent was added (10 mL for 0.2 mg and 2.0 mg doses and 20 mL for 4.0 mg doses), and the collection cups were agitated on the NGI Gentle Rocker for 10 minutes. The induction port was added 40 mL of sample diluent and was shaken for 1 minute. The pre-separator was added 50 mL of sample diluent and was shaken for 1 minute. The back-up filter was transferred to a crystallizing dish with 20 mL of sample diluent and was then sonicated for 5 minutes. The capsule from each determination was then transferred to a 20 mL volumetric flask and sample diluent was added. The suspension was then shaken and sonicated until fully dissolved. The resulting solution equilibrated under ambient conditions and was then made up to volume. Each Monodose RS01 was placed into an individual plastic bag and 20 mL of recovery solution was added. The bag was shaken by hand for 1 minute and filtered prior to HPLC analysis.

[1] = 2.0 mg capsule, 12 months 30/65
[2] = 2.0 mg capsule, 18 months 30/65
[3] = 2.0 mg capsule, 24 months 30/65
[4] = 4.0 mg capsule, 12 months 30/65

With `Cn1c(=O)n([C@H]2CCCN(C(=O)CC#N)C2)c2nc(-c3cnn4ccccc34)ccc21` [Compound I, (S)-3-(3-(1-methyl-2-oxo-5-(pyrazolo[1,5-a]pyridine-3-yl)-1H-imidazo[4,5-b]pyridine-3(2H)-yl)piperidin-1-yl)-3-oxopropanenitrile] the MMAD (2.0 mg and 4.0 mg formulations aerosolized, Tables 11 and 12) was 1.8-2.0 μm, the FPF (2.0 mg and 4.0 mg formulations, Tables 11 and 12, up to 24 months) was 73-78% and the “FPF % (FPM/Impactor dose)” value (2.0 mg capsule, 1 month 30/65) was 75.4%. For the same compound, the MMAD (2.0 mg capsule, 1 month 30/65) was 2.0 μm, the “Fine particle mass (≤5 μm)” value (2.0 mg capsule, 1 month 30/65) was 1143.6 and the “FPF % (FPM/Impactor dose)” value (2.0 mg capsule, 1 month 40/75) was 75.9%. The MMAD (2.0 mg capsule, 1 month 40/75) was 1.9 μm, the “Fine particle mass (≤5 μm)” value (2.0 mg capsule, 1 month 40/75) was 1046.6 and the “FPF % (FPM/Impactor dose)” value (2.0 mg capsule, 3 months 30/65) was 77.2%. For the same compound, the MMAD (2.0 mg capsule, 3 months 30/65) was 1.9 μm, the “Fine particle mass (≤5 μm)” value (2.0 mg capsule, 3 months 30/65) was 1096.5 and the “FPF % (FPM/Impactor dose)” value (2.0 mg capsule, 3 months 40/75) was 77.2%. For the same compound, the MMAD (2.0 mg capsule, 3 months 40/75) was 1.8 μm, the “Fine particle mass (≤5 μm)” value (2.0 mg capsule, 3 months 40/75) was 1090.9 and the “FPF % (FPM/Impactor dose)” value (2.0 mg capsule, 6 months 30/65) was 74.9%. The MMAD (2.0 mg capsule, 6 months 30/65) was 1.9 μm, the “Fine particle mass (≤5 μm)” value (2.0 mg capsule, 6 months 30/65) was 1074.3 and the “FPF % (FPM/Impactor dose)” value (2.0 mg capsule, 6 months 40/75) was 74.7%. For the same compound, the MMAD (2.0 mg capsule, 6 months 40/75) was 1.9 μm, the “Fine particle mass (≤5 μm)” value (2.0 mg capsule, 6 months 40/75) was 1069.6 and the “FPF % (FPM/Impactor dose)” value (2.0 mg capsule, 9 months 30/65) was 76.6%. For the same compound, the MMAD (2.0 mg capsule, 9 months 30/65) was 1.9 μm, the “Fine particle mass (≤5 μm)” value (2.0 mg capsule, 9 months 30/65) was 1075.9 and the “FPF % (FPM/Impactor dose)” value [1] was 77.3%. For the same compound, the MMAD [1] was 1.9 μm, the “Fine particle mass (≤5 μm)” value [1] was 1098.4 and the “FPF % (FPM/Impactor dose)” value [2] was 77.0%. For the same compound, the MMAD [2] was 1.9 μm, the “Fine particle mass (≤5 μm)” value [2] was 1162.7 and the “FPF % (FPM/Impactor dose)” value [3] was 78.0%. The MMAD [3] was 2.0 μm, the “Fine particle mass (≤5 μm)” value [3] was 1083.1 and the “FPF % (FPM/Impactor dose)” value (2.0 mg capsule, Release) was 73.5%. For the same compound, the MMAD (2.0 mg capsule, Release) was 2.0 μm, the “Fine particle mass (≤5 μm)” value (2.0 mg capsule, Release) was 1006.7 and the “FPF % (FPM/Impactor dose)” value (4.0 mg capsule, 1 month 30/65) was 75.1%. The MMAD (4.0 mg capsule, 1 month 30/65) was 1.8 μm, the “Fine particle mass (≤5 μm)” value (4.0 mg capsule, 1 month 30/65) was 2181.6 and the “FPF % (FPM/Impactor dose)” value (4.0 mg capsule, 1 month 40/75) was 73.6%. The MMAD (4.0 mg capsule, 1 month 40/75) was 1.9 μm, the “Fine particle mass (≤5 μm)” value (4.0 mg capsule, 1 month 40/75) was 2130.4 and the “FPF % (FPM/Impactor dose)” value (4.0 mg capsule, 3 months 30/65) was 75.4%. The MMAD (4.0 mg capsule, 3 months 30/65) was 1.8 μm, the “Fine particle mass (≤5 μm)” value (4.0 mg capsule, 3 months 30/65) was 2167.8 and the “FPF % (FPM/Impactor dose)” value (4.0 mg capsule, 3 months 40/75) was 72.9%. The MMAD (4.0 mg capsule, 3 months 40/75) was 1.9 μm, the “Fine particle mass (≤5 μm)” value (4.0 mg capsule, 3 months 40/75) was 2059.2 and the “FPF % (FPM/Impactor dose)” value (4.0 mg capsule, 6 months 30/65) was 73.6%. For the same compound, the MMAD (4.0 mg capsule, 6 months 30/65) was 1.9 μm, the “Fine particle mass (≤5 μm)” value (4.0 mg capsule, 6 months 30/65) was 2098.3 and the “FPF % (FPM/Impactor dose)” value (4.0 mg capsule, 6 months 40/75) was 74%. The MMAD (4.0 mg capsule, 6 months 40/75) was 1.8 μm, the “Fine particle mass (≤5 μm)” value (4.0 mg capsule, 6 months 40/75) was 2090 and the “FPF % (FPM/Impactor dose)” value (4.0 mg capsule, 9 months 30/65) was 74%. For the same compound, the MMAD (4.0 mg capsule, 9 months 30/65) was 1.8 μm, the “Fine particle mass (≤5 μm)” value (4.0 mg capsule, 9 months 30/65) was 2116.2 and the “FPF % (FPM/Impactor dose)” value [4] was 76.5%. The MMAD [4] was 1.9 μm, the “Fine particle mass (≤5 μm)” value [4] was 2182.2 and the “FPF % (FPM/Impactor dose)” value (4.0 mg capsule, 18 months) was 75.4%. For the same compound, the MMAD (4.0 mg capsule, 18 months) was 1.9 μm, the “Fine particle mass (≤5 μm)” value (4.0 mg capsule, 18 months) was 2254.8 and the “FPF % (FPM/Impactor dose)” value (4.0 mg capsule, 24 months) was 76.7%. For the same compound, the MMAD (4.0 mg capsule, 24 months) was 1.9 μm, the “Fine particle mass (≤5 μm)” value (4.0 mg capsule, 24 months) was 2201.8 and the “FPF % (FPM/Impactor dose)” value (4.0 mg capsule, Release) was 75.3%. For the same compound, the MMAD (4.0 mg capsule, Release) was 1.9 μm and the “Fine particle mass (≤5 μm)” value (4.0 mg capsule, Release) was 2157.0.
